Measured values reported in patent US20070049593A1 (priority 2004, published 2007).
Where a name gives a salt, the structure may show the parent alone.

What follows are compounds tested against T1, HCV polymerase (Hepatitis C virus genotype 1b, UniProt P26663) (assay: biochemical).
T1 construct: a region encoding NS5B (J Virol 1991 March, 65(3), 1105-13, 544 amino acids after deletion of 47 amino acids on the C-terminal); 6xHis (C); made in house; host or cells: Escherichia coli
T1 sequence (P26663 2420-2963): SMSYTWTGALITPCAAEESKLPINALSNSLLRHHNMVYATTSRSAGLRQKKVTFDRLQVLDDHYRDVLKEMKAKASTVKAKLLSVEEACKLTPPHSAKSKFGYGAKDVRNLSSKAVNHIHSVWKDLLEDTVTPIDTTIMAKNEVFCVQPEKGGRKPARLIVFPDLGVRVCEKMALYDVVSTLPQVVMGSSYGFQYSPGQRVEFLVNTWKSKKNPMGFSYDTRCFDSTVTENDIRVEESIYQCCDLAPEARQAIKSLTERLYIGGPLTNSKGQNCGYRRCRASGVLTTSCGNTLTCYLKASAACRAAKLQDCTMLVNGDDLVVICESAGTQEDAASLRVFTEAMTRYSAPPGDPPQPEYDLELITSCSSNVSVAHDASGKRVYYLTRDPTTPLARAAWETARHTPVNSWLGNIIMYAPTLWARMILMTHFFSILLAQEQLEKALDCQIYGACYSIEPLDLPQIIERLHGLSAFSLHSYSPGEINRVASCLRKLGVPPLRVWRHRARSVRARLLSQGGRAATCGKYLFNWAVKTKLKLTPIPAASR
Parameters: species or system HCV BK strain
Outline: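 Recombinant HCV BK-strain NS5B (C-terminal 47 aa deleted, His6-tagged, E. coli), 0.5 μg/ml, run with 5 μg/ml in vitro-transcribed RNA template (polyU/3′X), ATP/GTP/CTP 50 μM, UTP 2 μM plus [3H]UTP, pH 7.5, 25° C, 90 min. TCA-precipitated RNA counted by scintillation; IC50 from activity with vs without compound.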
Work on COC1CCN(CCN2CCn3c(c(C4CCCCC4)c4ccc(C(=O)O)cc43)-c3ccccc32)C1 (stereo not drawn) [Example 1-238, 13-cyclohexyl-5-[2-(3-methoxypyrrolidin-1-yl)ethyl]-6,7-dihydro-5H-benzo[5,6][1,4]diazepino[7,1-a]indole-10-carboxylic acid dihydrochloride] yielded an IC50 of under 100 nM. Work on CCN1CCCN(C(=O)CN2CCn3c(c(C4CCCCC4)c4ccc(C(=O)O)cc43)-c3ccccc32)CC1 [Example 1-239, 13-cyclohexyl-5-[2-(4-ethyl-1,4-diazepan-1-yl)-2-oxoethyl]-6,7-dihydro-5H-benzo[5,6][1,4]diazepino[7,1-a]indole-10-carboxylic acid dihydrochloride] yielded an IC50 of under 100 nM. In the case of CC(C)N1CCC(CCN2CCn3c(c(C4CCCCC4)c4ccc(C(=O)O)cc43)-c3ccc(Cl)cc32)CC1 [Example 1-240, 3-chloro-13-cyclohexyl-5-[2-(1-isopropylpiperidin-4-yl)ethyl]-6,7-dihydro-5H-benzo[5,6][1,4]diazepino[7,1-a]indole-10-carboxylic acid dihydrochloride], the IC50 is reported as under 100 nM. Compound Cc1cccc2c1-c1c(C3CCCCC3)c3ccc(C(=O)O)cc3n1CCN2CCN1CCCCC1 [Example 1-241, 13-cyclohexyl-1-methyl-5-[2-(piperidin-1-yl)ethyl]-6,7-dihydro-5H-benzo[5,6][1,4]diazepino[7,1-a]indole-10-carboxylic acid dihydrochloride] has an IC50 of under 100 nM. For O=C(O)c1ccc2c(C3CCCCC3)c3n(c2c1)CCN(CCCN1CCCCC1)c1cc(Cl)ccc1-3 [Example 1-242, 3-chloro-13-cyclohexyl-5-[3-(piperidin-1-yl)propyl]-6,7-dihydro-5H-benzo[5,6][1,4]diazepino[7,1-a]indole-10-carboxylic acid dihydrochloride], the IC50 was under 100 nM. For CCN1CCC(CCN2CCn3c(c(C4CCCCC4)c4ccc(C(=O)O)cc43)-c3ccc(Cl)cc32)CC1 [Example 1-243, 3-chloro-13-cyclohexyl-5-[2-(1-ethylpiperidin-4-yl)ethyl]-6,7-dihydro-5H-benzo[5,6][1,4]diazepino[7,1-a]indole-10-carboxylic acid dihydrochloride], the IC50 was under 100 nM. Compound O=C(O)c1ccc2c(C3CCCCC3)c3n(c2c1)CCN(CCC1CCNCC1)c1cc(Cl)ccc1-3 [Example 1-244, 3-chloro-13-cyclohexyl-5-[2-(piperidin-4-yl)ethyl]-6,7-dihydro-5H-benzo[5,6][1,4]diazepino[7,1-a]indole-10-carboxylic acid dihydrochloride] has an IC50 of under 100 nM. O=C(O)c1ccc2c(C3CCCCC3)c3n(c2c1)CCN(CCCN1CCCCCC1)c1cc(Cl)ccc1-3 [Example 1-245, 5-[3-(azepan-1-yl)propyl]-3-chloro-13-cyclohexyl-6,7-dihydro-5H-benzo[5,6][1,4]diazepino[7,1-a]indole-10-carboxylic acid dihydrochloride] was tested, and the IC50 was under 100 nM. With CN1CCC(CCN2CCn3c(c(C4CCCCC4)c4ccc(C(=O)O)cc43)-c3ccc(Cl)cc32)CC1 [Example 1-246, 3-chloro-13-cyclohexyl-5-[2-(1-methylpiperidin-4-yl)ethyl]-6,7-dihydro-5H-benzo[5,6][1,4]diazepino[7,1-a]indole-10-carboxylic acid dihydrochloride] the IC50 was under 100 nM. CN(C)CCCN1CCn2c(c(C3CCCCC3)c3ccc(C(=O)O)cc32)-c2ccc(Cl)cc21 [Example 1-247, 3-chloro-13-cyclohexyl-5-(3-dimethylaminopropyl)-6,7-dihydro-5H-benzo[5,6][1,4]diazepino[7,1-a]indole-10-carboxylic acid dihydrochloride] was tested, and the IC50 was under 100 nM. For O=C(O)c1ccc2c(C3CCCCC3)c3n(c2c1)CCN(CCN1CCCCC1)c1cc(F)c(F)cc1-3 [Example 1-248, 13-cyclohexyl-2,3-difluoro-5-[2-(piperidin-1-yl)ethyl]-6,7-dihydro-5H-benzo[5,6][1,4]diazepino[7,1-a]indole-10-carboxylic acid dihydrochloride], the IC50 was under 100 nM. With CCC1CCCN(CCN2CCn3c(c(C4CCCCC4)c4ccc(C(=O)O)cc43)-c3ccc(Cl)cc32)C1 (stereo not drawn) [Example 1-249, 3-chloro-13-cyclohexyl-5-[2-(3-ethylpiperidin-1-yl)ethyl]-6,7-dihydro-5H-benzo[5,6][1,4]diazepino[7,1-a]indole-10-carboxylic acid dihydrochloride] the IC50 was under 100 nM. For COC(=O)N1CCC(N(C)CCN2CCn3c(c(C4CCCCC4)c4ccc(C(=O)O)cc43)-c3ccccc32)C1 (stereo not drawn) [Example 1-250, 13-cyclohexyl-5-{2-[N-(1-methoxycarbonylpyrrolidin-3-yl)-N-methylamino]ethyl}-6,7-dihydro-5H-benzo[5,6][1,4]diazepino[7,1-a]indole-10-carboxylic acid monohydrochloride], the IC50 was under 100 nM. Work on CC(=O)N1CCC(N(C)CCN2CCn3c(c(C4CCCCC4)c4ccc(C(=O)O)cc43)-c3ccccc32)C1 (stereo not drawn) [Example 1-251, 5-{2-[N-(1-acetylpyrrolidin-3-yl)-N-methylamino]ethyl}-13-cyclohexyl-6,7-dihydro-5H-benzo[5,6][1,4]diazepino[7,1-a]indole-10-carboxylic acid monohydrochloride] yielded an IC50 of under 100 nM. Work on CN(CCN1CCn2c(c(C3CCCCC3)c3ccc(C(=O)O)cc32)-c2ccccc21)C1CCN(S(C)(=O)=O)C1 (stereo not drawn) [Example 1-252, 13-cyclohexyl-5-{2-[N-(1-methanesulfonylpyrrolidin-3-yl)-N-methylamino]ethyl}-6,7-dihydro-5H-benzo[5,6][1,4]diazepino[7,1-a]indole-10-carboxylic-acid] yielded an IC50 of under 100 nM. For Cc1ccc2c(c1)N(CCN1CCCC(C)C1)CCn1c-2c(C2CCCCC2)c2ccc(C(=O)O)cc21 (stereo not drawn) [Example 1-253, 13-cyclohexyl-3-methyl-5-[2-(3-methylpiperidin-1-yl)ethyl]-6,7-dihydro-5H-benzo[5,6][1,4]diazepino[7,1-a]indole-10-carboxylic acid dihydrochloride], the IC50 was under 100 nM. Compound CC1CCCN(CCN2CCn3c(c(C4CCCCC4)c4ccc(C(=O)O)cc43)-c3ccc(F)cc32)C1 (stereo not drawn) [Example 1-254, 13-cyclohexyl-3-fluoro-5-[2-(3-methylpiperidin-1-yl)ethyl]-6,7-dihydro-5H-benzo[5,6][1,4]diazepino[7,1-a]indole-10-carboxylic acid dihydrochloride] has an IC50 of under 100 nM. Work on CC1CN(CCN2CCn3c(c(C4CCCCC4)c4ccc(C(=O)O)cc43)-c3ccccc32)CCO1 (stereo not drawn) [Example 1-255, 13-cyclohexyl-5-[2-(2-methylmorpholin-4-yl)ethyl]-6,7-dihydro-5H-benzo[5,6][1,4]diazepino[7,1-a]indole-10-carboxylic acid dihydrochloride] yielded an IC50 of under 100 nM. CCC1CN(CCN2CCn3c(c(C4CCCCC4)c4ccc(C(=O)O)cc43)-c3ccccc32)CCO1 (stereo not drawn) [Example 1-256, 13-cyclohexyl-5-[2-(2-ethylmorpholin-4-yl)ethyl]-6,7-dihydro-5H-benzo[5,6][1,4]diazepino[7,1-a]indole-10-carboxylic acid dihydrochloride] was tested, and the IC50 was under 100 nM. CCC1COCCN1CCN1CCn2c(c(C3CCCCC3)c3ccc(C(=O)O)cc32)-c2ccccc21 (stereo not drawn) [Example 1-257, 13-cyclohexyl-5-[2-(3-ethylmorpholin-4-yl)ethyl]-6,7-dihydro-5H-benzo[5,6][1,4]diazepino[7,1-a]indole-10-carboxylic acid dihydrochloride] was tested, and the IC50 was under 100 nM. Cc1ccc2c(c1)N(CCN1CCCCC1C)CCn1c-2c(C2CCCCC2)c2ccc(C(=O)O)cc21 (stereo not drawn) [Example 1-258, 13-cyclohexyl-3-methyl-5-[2-(2-methylpiperidin-1-yl)ethyl]-6,7-dihydro-5H-benzo[5,6][1,4]diazepino[7,1-a]indole-10-carboxylic acid dihydrochloride] showed an IC50 of under 100 nM. Cc1ccc2c(c1)N(CCN1CCC(C)CC1)CCn1c-2c(C2CCCCC2)c2ccc(C(=O)O)cc21 [Example 1-259, 13-cyclohexyl-3-methyl-5-[2-(4-methylpiperidin-1-yl)ethyl]-6,7-dihydro-5H-benzo[5,6][1,4]diazepino[7,1-a]indole-10-carboxylic acid dihydrochloride] showed an IC50 of under 100 nM. With Cc1ccc2c(c1)N(CCN1CCCC1)CCn1c-2c(C2CCCCC2)c2ccc(C(=O)O)cc21 [Example 1-260, 13-cyclohexyl-3-methyl-5-[2-(pyrrolidin-1-yl)ethyl]-6,7-dihydro-5H-benzo[5,6][1,4]diazepino[7,1-a]indole-10-carboxylic acid dihydrochloride] the IC50 was under 100 nM. For CCN1CCCC(CCN2CCn3c(c(C4CCCCC4)c4ccc(C(=O)O)cc43)-c3ccc(Cl)cc32)C1 (stereo not drawn) [Example 1-261, 3-chloro-13-cyclohexyl-5-[2-(1-ethylpiperidin-3-yl)ethyl]-6,7-dihydro-5H-benzo[5,6][1,4]diazepino[7,1-a]indole-10-carboxylic acid dihydrochloride], the IC50 was under 100 nM. CN1CCC(OCCN2CCn3c(c(C4CCCCC4)c4ccc(C(=O)O)cc43)-c3ccc(Cl)cc32)CC1 [Example 1-262, 3-chloro-13-cyclohexyl-5-[2-(1-methylpiperidin-4-yloxy)ethyl]-6,7-dihydro-5H-benzo[5,6][1,4]diazepino[7,1-a]indole-10-carboxylic acid dihydrochloride] was tested, and the IC50 was under 100 nM. For CC(C)CN1CCCC(CCN2CCn3c(c(C4CCCCC4)c4ccc(C(=O)O)cc43)-c3ccc(Cl)cc32)C1 (stereo not drawn) [Example 1-263, 3-chloro-13-cyclohexyl-5-[2-(1-isobutylpiperidin-3-yl)ethyl]-6,7-dihydro-5H-benzo[5,6][1,4]diazepino[7,1-a]indole-10-carboxylic acid dihydrochloride], the IC50 was under 100 nM. Work on O=C(O)c1ccc2c(C3CCCCC3)c3n(c2c1)CCN(CCC1CCCN(C2CCCC2)C1)c1cc(Cl)ccc1-3 (stereo not drawn) [Example 1-264, 3-chloro-13-cyclohexyl-5-[2-(1-cyclopentylpiperidin-3-yl)ethyl]-6,7-dihydro-5H-benzo[5,6][1,4]diazepino[7,1-a]indole-10-carboxylic acid dihydrochloride] yielded an IC50 of under 100 nM.
